Data set [1] can be described thus: (§1) Toxicity against Artemia salina after 24 hrs. The following applies: in vivo. The format is organism-based.
The next data set has as its system Artemia salina. Described as §1. The format is organism-based. To be noted: in vivo, 24 h.

Values after ≈ are worked out from the molar mass of the structure shown.

As to `C=CC(C)(O)/C=C/C=C(\C)CC/C=C(\C)CC(=O)CC(C)C` (centres undefined), the LC50 at 24 h in data set [1] worked out at 3 µg/mL (≈ 9.85 µM).

Consider `C=CC(C)(O)/C=C/C=C(\C)CC/C=C(\C)CCC=C(C)C` (centres undefined), for which the Activity entry in the data set on Artemia salina is “Toxic”.

Consider `C=CC(C)(O)/C=C/C=C(\C)CCC/C(C)=C\C(=O)C=C(C)C` (centres undefined), for which the LC50 at 24 h in data set [1] is 163 µg/mL (≈ 539 µM).

In data set [1], `C=CC(C)(O)/C=C/C=C(\C)CC/C=C(\C)CC(=O)C=C(C)C` (centres undefined) [STYXENOL A] registered an LC50 at 24 h of 154 µg/mL (≈ 509 µM).

For orientation: LC50 means the concentration lethal to half of the exposed cells or organisms. Lower therefore signals greater toxicity.

The record behind these values is ChEMBL document CHEMBL1149743, “Linear diterpenes from the Caribbean sponge Myrmekioderma styx” (J Nat Prod, 1992).
